Experimental data taken from US10172362B2, “Biofilms, components and methods of use to reduce biofouling and contamination” (THE PENN STATE RESEARCH FOUNDATION, priority 2015, dated 2019).

B1: BdcA E50Q variant (protein, UniProt P39333 1-237, looked up, variant E50Q)
Cyclic-di-GMP-binding biofilm …: MGAFTGKTVLILGGSRGIGAAIVRRFVTDGANVRFTYAGSKDAAKRLAQQTGATAVFTDSADRDAVIDVVRKSGALDILVVNAGIGVFGEALELNADDIDRLFKINIHAPYHASVEAARQMPEGGRILIIGSVNGDRMPVAGMAAYAASKSALQGMARGLARDFGPRGITINVVQPGPIDTDANPANGPMRDMLHSLMAIKRHGQPEEVAGMVAWLAGPEASFVTGAMHTIDGAFGA

What was measured:
[1] = Rejection experiments with NF90 membranes (no biofilm); assay type: physicochemical; conditions: 1 mM and 10 mM feed in 5 mM NaCl (pH 9.0), 30 min
Protocol: Beneficial Biofilm Degrades Epichlorohydrin. Epichlorohydrin is an emerging water contaminant for which treatment techniques are not well studied. […] Measurements were taken 30 min after permeation began. Feed was in 5 mM NaCl (pH 9.0). Furthermore, when grown on the NF90 membrane, the beneficial biofilm that produces EH degraded epichlorohydrin by more than 39±4% in single pass batch filtration (See FIGS. 29 and 30). […] Biofilms grown for 24 h on NF90 membranes were challenged with 10 mM epichlorohydrin in 5 mM NaCl feed solution (pH 9). The left and adjacent right bars indicate the molar removal of epichlorohydrin (%) at 20 min and 30 min respectively, after starting filtration. The removal of epichlorohydrin by adsorption to cellular biomass was estimated using a dead cell control experiment. EH− is E. coli TG1/pBdcAE50Q-lasI-lasR/pBNos and EH+ is E. coli TG1/pBdcAE50Q-lasI-lasR/pBNos-echA. Dead cells were obtained by autoclaving overnight cultures of the EH+ strain. The error bars are standard deviation for three independent colonies.

biofilm dispersal = conditions: cited from earlier work

Molecule | passage through NF90 membrane [1] | higher levels of biofilm dispersal (biofilm dispersal)
ClCC1CO1 (centres unmarked) [Epichlorohydrin] | passes through the membrane used | –
B1 | – | six-fold higher
